The source made the active and inactive calls.
What was measured:
[1] = AlphaScreen signal interference compounds, dose response, artefact control for ARNT-TACC3 interaction inhibitor project, biochemical, luminescence, cherry-pick (AID 651705); type: functional;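 also: AlphaScreen bead proximity signal that flags compounds interfering with the detection technology; potency reflects signal decrease which marks the compound as an assay artifact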
Nonstructural protein 1 = Nonstructural protein 1 (Influenza A virus, UniProt Q194T2); type: functional, Influenza A virus (A/California/07/2009(H1N1))
Chain of Nonstructural protein 1 (Q194T2 whole entry): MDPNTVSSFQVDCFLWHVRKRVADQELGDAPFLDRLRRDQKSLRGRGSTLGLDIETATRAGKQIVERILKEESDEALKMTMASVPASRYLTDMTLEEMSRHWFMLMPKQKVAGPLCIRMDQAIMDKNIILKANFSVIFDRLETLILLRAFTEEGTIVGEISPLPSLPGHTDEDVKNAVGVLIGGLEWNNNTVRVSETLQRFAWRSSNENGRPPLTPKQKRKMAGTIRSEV

[2] = molecular target: T1, Ubiquitin-conjugating enzyme E2 N (Homo sapiens, UniProt P61088); type: functional;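 also: Dose-response confirmation in a TR-FRET assay detecting UBC13-driven polyubiquitin chain formation, inhibition measured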
T1 sequence (P61088 whole entry): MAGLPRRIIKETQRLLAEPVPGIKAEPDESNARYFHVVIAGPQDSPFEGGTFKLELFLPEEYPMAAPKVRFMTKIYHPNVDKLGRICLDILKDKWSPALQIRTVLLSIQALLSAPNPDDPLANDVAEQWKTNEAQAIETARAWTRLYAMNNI

[3] = molecular target: T2, DNA repair and recombination protein RAD54-like (Homo sapiens, UniProt Q92698); test: inhibitors of human RAD54 branch migration, confirmation, biochemical, fluorescence, cherry-picked samples, dose series (AID 651657); type: functional
T2 sequence (Q92698 whole entry): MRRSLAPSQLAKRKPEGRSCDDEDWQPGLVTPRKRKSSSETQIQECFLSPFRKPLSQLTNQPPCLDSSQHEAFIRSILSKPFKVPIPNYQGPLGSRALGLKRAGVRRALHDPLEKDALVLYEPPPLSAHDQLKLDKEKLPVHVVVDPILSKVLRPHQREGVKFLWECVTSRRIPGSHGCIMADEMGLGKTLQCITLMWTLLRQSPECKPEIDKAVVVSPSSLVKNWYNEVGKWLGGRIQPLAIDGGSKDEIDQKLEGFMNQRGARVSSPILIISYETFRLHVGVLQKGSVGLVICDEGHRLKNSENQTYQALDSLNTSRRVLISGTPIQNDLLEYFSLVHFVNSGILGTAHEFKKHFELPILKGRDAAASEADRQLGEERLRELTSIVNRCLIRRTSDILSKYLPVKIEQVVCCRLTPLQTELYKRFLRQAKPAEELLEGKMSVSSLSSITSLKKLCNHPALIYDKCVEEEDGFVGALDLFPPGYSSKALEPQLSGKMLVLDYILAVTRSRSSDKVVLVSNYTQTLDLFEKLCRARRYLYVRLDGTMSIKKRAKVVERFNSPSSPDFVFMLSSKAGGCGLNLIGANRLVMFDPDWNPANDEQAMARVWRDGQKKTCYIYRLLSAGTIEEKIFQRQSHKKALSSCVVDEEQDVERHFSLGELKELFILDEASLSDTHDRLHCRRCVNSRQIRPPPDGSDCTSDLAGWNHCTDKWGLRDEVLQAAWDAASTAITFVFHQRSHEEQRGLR

Paired box protein Pax-8 = Paired box protein Pax-8 (Homo sapiens, UniProt Q06710); test: inhibitors of PAX8-driven TPO luciferase reporter, dose response, RMG-I cells, cherry-pick (AID 687027); type: functional, cell-based;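 also: luciferase reporter driven by Pax8 target thyroperoxidase promoter measured by SteadyGlo luminescence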
Chain of Paired box protein Pax-8 (Q06710 whole entry): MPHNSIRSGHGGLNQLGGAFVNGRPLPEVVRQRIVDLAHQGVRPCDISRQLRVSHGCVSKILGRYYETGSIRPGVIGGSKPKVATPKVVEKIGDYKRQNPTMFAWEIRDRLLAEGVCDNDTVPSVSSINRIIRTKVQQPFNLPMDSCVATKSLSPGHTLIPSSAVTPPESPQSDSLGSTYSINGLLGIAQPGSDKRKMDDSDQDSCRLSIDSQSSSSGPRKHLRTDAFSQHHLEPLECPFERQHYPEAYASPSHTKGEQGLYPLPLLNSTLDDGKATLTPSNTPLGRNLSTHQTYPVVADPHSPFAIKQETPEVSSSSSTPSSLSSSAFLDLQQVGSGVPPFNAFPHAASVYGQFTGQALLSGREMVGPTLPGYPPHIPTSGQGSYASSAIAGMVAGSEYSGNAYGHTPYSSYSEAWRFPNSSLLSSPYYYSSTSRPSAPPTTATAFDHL

BJ [4] = test: cytotoxicity toward BJ-TERT-LT-ST fibroblasts, dose response, cell-based, RAS-independent, luminescence (AID 1935); type: functional; details: Homo sapiens;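 also: BJ fibroblasts immortalized with TERT plus LT and ST oncogenes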
[5] = inhibitors of SNCA 5'UTR-driven reporter translation, confirmation, H4 neuroglioma cells, luminescence (AID 1988); type: functional, cell-based
[6] = cytotoxicity toward DRD oncogenic fibroblasts, dose response, cell-based, non-viral oncogenic, luminescence (AID 1934); type: functional; details: Homo sapiens
BJ [7] = test: cytotoxicity toward BJ-TERT fibroblasts, dose response, cell-based, RAS-independent, luminescence (AID 1933); type: functional; details: Homo sapiens
[8] = molecular target: T3, Heat shock factor protein 1 (Mus musculus, UniProt P38532); test: inhibition of MG132-induced HSE-luciferase signal, confirmation, cell-based, NIH3T3, luminescence, dose retest (AID 2382); type: functional;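 also: NIH3T3 fibroblasts with HSF1-driven luciferase reporter stressed by proteasome inhibitor MG132; luminescence from HSF1-driven luciferase expression after 8 hours of MG132 stress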
T3 sequence (P38532 whole entry): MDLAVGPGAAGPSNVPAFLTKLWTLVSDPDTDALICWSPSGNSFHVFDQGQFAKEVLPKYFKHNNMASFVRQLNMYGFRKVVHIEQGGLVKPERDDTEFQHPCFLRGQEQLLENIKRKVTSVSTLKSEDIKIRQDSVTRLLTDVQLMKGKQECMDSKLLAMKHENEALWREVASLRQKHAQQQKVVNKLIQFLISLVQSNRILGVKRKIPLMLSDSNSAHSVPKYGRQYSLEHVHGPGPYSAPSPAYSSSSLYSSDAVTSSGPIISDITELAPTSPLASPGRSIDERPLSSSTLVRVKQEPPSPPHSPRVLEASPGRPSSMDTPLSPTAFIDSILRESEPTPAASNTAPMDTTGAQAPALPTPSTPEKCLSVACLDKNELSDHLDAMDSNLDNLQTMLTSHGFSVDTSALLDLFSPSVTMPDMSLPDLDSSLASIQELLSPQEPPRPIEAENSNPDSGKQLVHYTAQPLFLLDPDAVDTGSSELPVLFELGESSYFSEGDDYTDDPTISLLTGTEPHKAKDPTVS

BJ [9] = test: cytotoxicity toward Ras-transformed BJeLR fibroblasts, dose response, cell-based, alamar blue fluorescence, cherrypicked samples (AID 2631); type: functional; details: Homo sapiens;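 also: confirmatory dose-response assay in RAS-dependent BJ fibroblasts engineered with TERT, LT and ST, with cytotoxicity read by fluorescence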
[10] = inhibitors of firefly luciferase expression or activity, dose response, H4 neuroglioma cells, luminescence (AID 1990); type: functional, cell-based
[11] = MDA-MB-231 cell growth inhibition, dose response, cytotoxicity control for RAD54 inhibitor project, CellTiter-Glo luminescence, cherry-pick (AID 651692); type: functional, cell-based
[12] = molecular target: G-protein coupled receptor 55 (Homo sapiens, UniProt Q9Y2T6); test: GPR55 antagonists blocking LPI-driven arrestin recruitment, primary screen, imaging, U2OS, beta-arrestin-GFP, LPI agonist (AID 2013); type: functional;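 also: antagonist potency measured as reduced agonist-driven arrestin aggregation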
Chain of G-protein coupled receptor 55 (Q9Y2T6 whole entry): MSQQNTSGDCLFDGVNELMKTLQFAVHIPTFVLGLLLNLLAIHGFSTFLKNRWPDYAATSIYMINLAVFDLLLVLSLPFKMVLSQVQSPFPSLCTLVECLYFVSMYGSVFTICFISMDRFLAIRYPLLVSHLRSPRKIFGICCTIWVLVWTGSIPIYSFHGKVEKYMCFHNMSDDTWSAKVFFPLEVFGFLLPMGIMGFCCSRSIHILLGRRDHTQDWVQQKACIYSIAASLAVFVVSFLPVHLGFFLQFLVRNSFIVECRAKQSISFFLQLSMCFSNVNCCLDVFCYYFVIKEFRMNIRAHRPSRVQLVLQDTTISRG

[13] = non-specific cell cytotoxicity, dose response, cytotoxicity control for PAX8 inhibitor project, plate reader, dry powder samples (AID 743021); type: functional, cell-based
BJ [14] = test: cells; type: functional, cell-based; details: Homo sapiens
[15] = molecular target: DNA repair protein RAD52 homolog (Homo sapiens, UniProt P43351); type: functional, biochemical
Chain of DNA repair protein RAD52 homolog (P43351 whole entry): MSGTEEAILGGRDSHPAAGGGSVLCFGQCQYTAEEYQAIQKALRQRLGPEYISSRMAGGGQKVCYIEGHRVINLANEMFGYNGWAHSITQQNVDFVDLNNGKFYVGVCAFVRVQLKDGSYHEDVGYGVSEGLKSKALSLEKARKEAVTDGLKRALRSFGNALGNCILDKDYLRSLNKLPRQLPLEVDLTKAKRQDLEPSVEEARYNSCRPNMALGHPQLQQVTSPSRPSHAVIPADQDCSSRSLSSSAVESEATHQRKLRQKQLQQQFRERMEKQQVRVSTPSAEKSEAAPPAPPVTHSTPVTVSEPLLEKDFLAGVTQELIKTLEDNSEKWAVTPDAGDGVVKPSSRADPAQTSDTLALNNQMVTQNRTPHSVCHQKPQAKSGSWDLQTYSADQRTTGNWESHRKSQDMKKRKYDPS

[16] = molecular target: Potassium voltage-gated channel subfamily KQT member 2 (Rattus norvegicus, UniProt O88943); test: KCNQ2 potassium channel inhibitors, dose response, cell-based, automated electrophysiology, set II, rat KCNQ2 (AID 588637); type: functional
Chain of Potassium voltage-gated channel subfamily KQT member 2 (O88943 whole entry): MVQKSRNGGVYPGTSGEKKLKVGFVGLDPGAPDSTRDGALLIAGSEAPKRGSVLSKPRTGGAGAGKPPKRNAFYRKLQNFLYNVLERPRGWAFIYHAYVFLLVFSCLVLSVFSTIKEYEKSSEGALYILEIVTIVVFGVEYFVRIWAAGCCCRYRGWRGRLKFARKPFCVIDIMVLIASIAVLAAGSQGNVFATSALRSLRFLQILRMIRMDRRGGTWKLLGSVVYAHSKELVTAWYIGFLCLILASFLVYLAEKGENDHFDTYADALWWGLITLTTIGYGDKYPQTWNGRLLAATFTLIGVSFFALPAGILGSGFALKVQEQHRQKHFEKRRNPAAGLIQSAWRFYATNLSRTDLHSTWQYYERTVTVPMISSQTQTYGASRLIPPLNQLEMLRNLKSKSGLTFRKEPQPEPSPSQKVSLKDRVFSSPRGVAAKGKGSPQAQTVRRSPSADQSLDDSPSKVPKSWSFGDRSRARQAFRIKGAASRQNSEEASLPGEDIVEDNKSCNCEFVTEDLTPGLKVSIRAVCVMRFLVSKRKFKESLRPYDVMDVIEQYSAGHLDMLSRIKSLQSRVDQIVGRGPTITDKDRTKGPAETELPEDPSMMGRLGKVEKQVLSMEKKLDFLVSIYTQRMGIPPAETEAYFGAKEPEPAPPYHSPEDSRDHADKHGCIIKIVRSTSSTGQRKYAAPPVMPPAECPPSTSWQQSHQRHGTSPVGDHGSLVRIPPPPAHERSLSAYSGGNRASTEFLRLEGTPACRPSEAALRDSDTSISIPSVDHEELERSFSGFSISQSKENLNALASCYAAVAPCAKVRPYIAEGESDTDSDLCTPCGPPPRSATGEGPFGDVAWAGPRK

[17] = molecular target: T4, Low molecular weight phosphotyrosine protein phosphatase (Homo sapiens, UniProt P24666); type: functional; details: read-out: IC50_Mean
T4 sequence (P24666 whole entry): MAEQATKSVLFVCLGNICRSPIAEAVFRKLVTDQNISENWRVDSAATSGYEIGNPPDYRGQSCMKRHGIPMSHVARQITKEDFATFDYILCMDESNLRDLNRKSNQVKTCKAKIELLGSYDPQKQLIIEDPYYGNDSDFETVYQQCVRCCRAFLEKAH

[18] = molecular target: T4, Low molecular weight phosphotyrosine protein phosphatase; type: functional; details: read-out: IC50_Mean; remark: listed apart in the source
Beta Lactamase = Beta Lactamase (Pseudomonas aeruginosa, UniProt Q932Y6); test: beta-lactamase reporter inhibitor potency, dose response, artefact control for NOD2-RIPK2 interaction inhibitor project, BLA reporter cells, FRET fluorescence (AID 651552); type: functional, cell-based
Chain of Beta Lactamase (Q932Y6 whole entry): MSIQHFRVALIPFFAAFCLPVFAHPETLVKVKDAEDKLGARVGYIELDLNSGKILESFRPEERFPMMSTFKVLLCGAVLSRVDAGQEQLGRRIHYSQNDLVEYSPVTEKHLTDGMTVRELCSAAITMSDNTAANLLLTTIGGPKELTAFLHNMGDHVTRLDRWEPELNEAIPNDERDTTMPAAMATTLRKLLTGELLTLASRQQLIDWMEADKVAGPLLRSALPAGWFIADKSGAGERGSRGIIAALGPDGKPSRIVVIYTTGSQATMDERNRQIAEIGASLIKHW

[19] = molecular target: T5, Heat shock protein HSP 90-alpha (Homo sapiens, UniProt P07900); test: Luminescence-based dose response biochemical high throughput screening assay for inhibitors of the Heat Shock Protein 90 (HSP90). [Related pubchem assays: 1831 (Summary AID.), 1846 (Confirmation screen.), 1789 (Primary screen.)]
[20] = HeLa cell cytotoxicity, dose response, cytotoxicity control for MgcRacGAP inhibitor project (AID 624300); type: functional
INS1 = test: beta cell apoptosis inhibitors, cytokine rescue, dose response, luminescence, retest (AID 449756); type: functional, cell-based; details: Rattus norvegicus;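 also: cell death triggered by IL-1 beta plus TNF-alpha plus IFN-gamma mixture; protective hits raise ATP signal compared with cytokine alone wells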
[21] = molecular target: T5, Heat shock protein HSP 90-alpha; type: functional, organism-based
Streptococcus = test: Group A Streptococcus viability loss, dose response, counter-screen for streptokinase expression inhibitor project, luminescence, BacTiterGlo (AID 1915); type: functional, organism-based;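 also: potency for reduction of bacterial viability or growth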
[22] = molecular target: T3, Heat shock factor protein 1; test: HSF1 potentiators in luciferase reporter cells, confirmation, cell-based, NIH3T3, luminescence, dose retest (AID 435004); type: functional;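 also: stress induced by proteasome inhibitor MG132 added 30 min after compound; luciferase reporter driven by HSF1 response element in NIH3T3 cells; actives raise luminescence as potentiators of the MG132 stress response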
[23] = Fluorescence-based cell-based high throughput dose response assay for inhibitors of the interaction of nucleotide-binding oligomerization domain containing 2 (NOD2) and the receptor-interacting serine-threonine kinase 2 (RIPK2).; type: functional; details: Homo sapiens
[24] = molecular target: T6, Rac GTPase-activating protein 1 (Homo sapiens, UniProt Q9H0H5); test: MgcRacGAP GTPase-activating activity inhibitors, confirmation, biochemical, ADP Hunter fluorescence, primary and confirmatory (AID 624330); type: functional
T6 sequence (Q9H0H5 whole entry): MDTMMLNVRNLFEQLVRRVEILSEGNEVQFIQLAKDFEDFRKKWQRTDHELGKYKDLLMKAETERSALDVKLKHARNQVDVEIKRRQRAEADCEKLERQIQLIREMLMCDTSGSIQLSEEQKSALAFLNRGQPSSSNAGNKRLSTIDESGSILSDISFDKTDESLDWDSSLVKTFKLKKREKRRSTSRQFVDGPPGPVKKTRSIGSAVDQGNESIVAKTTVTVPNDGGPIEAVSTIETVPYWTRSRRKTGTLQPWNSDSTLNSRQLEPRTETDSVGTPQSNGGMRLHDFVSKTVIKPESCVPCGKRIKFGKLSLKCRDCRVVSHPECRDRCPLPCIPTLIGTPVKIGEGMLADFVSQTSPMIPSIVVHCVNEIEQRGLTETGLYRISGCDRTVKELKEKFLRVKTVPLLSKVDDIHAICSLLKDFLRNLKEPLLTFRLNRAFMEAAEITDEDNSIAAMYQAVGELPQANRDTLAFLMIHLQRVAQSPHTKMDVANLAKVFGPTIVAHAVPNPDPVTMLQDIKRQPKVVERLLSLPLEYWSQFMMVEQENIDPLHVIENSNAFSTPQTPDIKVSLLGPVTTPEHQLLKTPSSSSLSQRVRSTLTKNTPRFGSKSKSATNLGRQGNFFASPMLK

[25] = test system: Streptococcus sp. 'group A'; test: growth inhibition of control SK(-) GAS strain, dose response, counter-screen for streptokinase expression inhibitor project, luminescence, kanamycin, BacTiterGlo, confirmation (AID 1900); type: functional, organism-based
Streptokinase A = molecular target: T7, Streptokinase A (Streptococcus pyogenes serotype M1, UniProt P10520); test: S. pyogenes streptokinase expression inhibitors, potency, dose response, plasminogen activation absorbance, OD405 (AID 1914); type: functional, Streptococcus pyogenes M1 GAS;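 also: secreted streptokinase activity via plasminogen activation per viability signal from cell pellet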
T7 sequence (P10520 whole entry): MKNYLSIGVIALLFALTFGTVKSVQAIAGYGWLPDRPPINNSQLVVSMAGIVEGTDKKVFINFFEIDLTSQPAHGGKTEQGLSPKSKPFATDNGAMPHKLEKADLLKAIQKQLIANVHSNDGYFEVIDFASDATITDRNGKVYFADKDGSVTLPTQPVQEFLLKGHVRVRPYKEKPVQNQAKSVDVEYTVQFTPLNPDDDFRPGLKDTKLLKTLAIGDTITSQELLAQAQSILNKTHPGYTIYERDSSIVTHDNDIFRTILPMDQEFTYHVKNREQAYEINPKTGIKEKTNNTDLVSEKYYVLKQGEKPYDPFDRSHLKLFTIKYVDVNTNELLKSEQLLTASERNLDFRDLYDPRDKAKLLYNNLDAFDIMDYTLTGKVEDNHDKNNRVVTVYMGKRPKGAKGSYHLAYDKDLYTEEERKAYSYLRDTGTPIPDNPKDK

[26] = molecular target: T8, Sentrin-specific protease 1 (Homo sapiens, UniProt Q9P0U3); test: potency of human SENP1 inhibitors, dose response, biochemical, kinetic FRET (AID 651697); type: functional; details: read-out: IC50_Mean
T8 sequence (Q9P0U3 whole entry, the tested form may be a part): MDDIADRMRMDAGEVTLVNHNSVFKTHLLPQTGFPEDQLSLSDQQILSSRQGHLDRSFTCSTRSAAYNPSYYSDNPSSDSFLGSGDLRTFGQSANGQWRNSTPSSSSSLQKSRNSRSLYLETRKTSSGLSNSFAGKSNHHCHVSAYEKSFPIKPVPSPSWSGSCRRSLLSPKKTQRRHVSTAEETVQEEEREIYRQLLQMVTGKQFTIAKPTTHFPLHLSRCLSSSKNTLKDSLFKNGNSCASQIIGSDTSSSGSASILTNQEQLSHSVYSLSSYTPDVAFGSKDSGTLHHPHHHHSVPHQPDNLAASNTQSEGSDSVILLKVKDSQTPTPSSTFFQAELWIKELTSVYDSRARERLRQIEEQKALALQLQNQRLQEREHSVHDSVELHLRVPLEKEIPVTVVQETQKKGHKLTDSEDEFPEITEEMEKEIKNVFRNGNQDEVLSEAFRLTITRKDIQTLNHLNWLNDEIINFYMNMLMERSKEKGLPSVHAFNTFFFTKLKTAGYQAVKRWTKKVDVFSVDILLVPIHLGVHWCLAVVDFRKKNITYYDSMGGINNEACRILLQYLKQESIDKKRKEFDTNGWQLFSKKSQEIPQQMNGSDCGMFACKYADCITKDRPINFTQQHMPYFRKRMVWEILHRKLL

[27] = molecular target: T8, Sentrin-specific protease 1; test: Dose response confirmation of small molecule inhibitors of the catalytic domain of the SUMO protease, SENP1 in a FRET assay.; type: functional; details: read-out: IC50_Mean
[28] = miR-122 activators in hepatoma reporter cells, dose response, cell-based, Huh7 psiCHECK-miR122, Renilla luciferase, cherry-picked (AID 651956); type: functional;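 also: huh7 hepatoma cells stably carrying a psiCHECK-2 miR-122 sensor plasmid; renilla luciferase signal reporting endogenous miR-122 activity after 48 h compound exposure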
[29] = molecular target: Aryl hydrocarbon receptor (Homo sapiens, UniProt P35869); details: Potency;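 also: confirmatory quantitative high-throughput screen measuring activation of the AhR signaling pathway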
Chain of Aryl hydrocarbon receptor (P35869 whole entry): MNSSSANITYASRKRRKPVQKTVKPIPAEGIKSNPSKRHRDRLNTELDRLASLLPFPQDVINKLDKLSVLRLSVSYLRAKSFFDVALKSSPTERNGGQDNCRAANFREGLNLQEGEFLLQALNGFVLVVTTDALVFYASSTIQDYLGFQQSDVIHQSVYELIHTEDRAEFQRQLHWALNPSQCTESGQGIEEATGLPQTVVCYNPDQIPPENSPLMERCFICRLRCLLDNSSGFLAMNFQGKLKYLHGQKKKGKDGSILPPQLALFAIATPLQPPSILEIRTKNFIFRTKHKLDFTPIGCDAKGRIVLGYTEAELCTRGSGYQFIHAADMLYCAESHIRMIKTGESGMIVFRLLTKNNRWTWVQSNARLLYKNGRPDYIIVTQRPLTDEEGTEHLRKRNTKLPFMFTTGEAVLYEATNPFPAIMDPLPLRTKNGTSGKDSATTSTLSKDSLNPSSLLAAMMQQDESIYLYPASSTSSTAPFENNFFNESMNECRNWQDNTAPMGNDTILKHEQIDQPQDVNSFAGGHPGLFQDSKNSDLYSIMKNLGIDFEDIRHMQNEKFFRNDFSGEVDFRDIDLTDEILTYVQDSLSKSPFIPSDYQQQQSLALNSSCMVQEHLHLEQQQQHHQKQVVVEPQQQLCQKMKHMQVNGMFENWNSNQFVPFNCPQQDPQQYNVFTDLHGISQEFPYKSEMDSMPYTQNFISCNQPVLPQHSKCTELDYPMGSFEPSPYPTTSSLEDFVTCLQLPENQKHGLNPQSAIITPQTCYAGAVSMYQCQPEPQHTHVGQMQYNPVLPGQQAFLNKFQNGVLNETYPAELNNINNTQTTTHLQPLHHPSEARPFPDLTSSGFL

## O=C(COC(=O)c1ccccn1)c1cccc(Br)c1
[1]
  AC50: 91 µM (active)
Nonstructural protein 1
  IC50: 25.6 µM (active)

## CN(C)CCNC(=O)c1cc2c(s1)-c1ccc(Cl)cc1SC2
[2]
  IC50: > 20 µM (inactive)
[3]
  AC50: 60.8 µM (active)
Paired box protein Pax-8
  AC50: 9.29 µM (active)
BJ [4]
  EC50: 5.57 µM (inconclusive)
[5]
  EC50: 9.06 µM (active)
[6]
  EC50: 5.06 µM (active)
BJ [7]
  EC50: 4.54 µM (active)
[8]
  EC50: 13.5 µM (active)
BJ [9]
  EC50: 2.18 µM (active)
[10]
  EC50: > 120 µM (not active)
[11]
  AC50: 11 µM (active)
[12]
  IC50: 6.25 µM (active)
[13]
  AC50: 29.3 µM (active)
BJ [14]
  EC50: 5.2 µM (inconclusive)
[15]
  AC50: 8.31 µM (active)

## COc1ccccc1CC(=O)NC1CCCc2ccccc21 (stereo not given)
[16]
  IC50: 9.28 µM (active)

## CC(=O)Nc1ccc(CNc2nc(NCC3CC3)nc3ccsc23)cc1
[17]
  IC50: 17 µM (active)
[18]
  IC50: 12.6 µM (active)

## O=[N+]([O-])/C=C/c1ccc2c(ccn2Cc2ccccc2)c1
Beta Lactamase
  IC50: 30 µM (inactive)
[19]
  IC50: 2.98 µM (active)
[20]
  CC50: 42 µM (active)
INS1
  AC50: 6.82 µM (active)
[21]
  AC50: 3.42 µM (active)
Streptococcus
  EC50: 11.6 µM (active)
[22]
  EC50: 5.7 µM (active)
[23]
  IC50: 1.74 µM (active)
[24]
  IC50: 23.3 µM (active)
[25]
  EC50: 2.91 µM (active)
Streptokinase A
  EC50: 6.15 µM (active)

## O=C1C=C(c2cccc(Cl)c2O)C[C@@H](c2ccc3c(c2)OCO3)C1
[26]
  IC50: 1.93 µM (active)
[27]
  IC50: 0.993 µM (active)

## CN1C(=O)c2cc(NC(=O)c3cccc(C(F)(F)F)c3)ccc2OC[C@H]2O[C@H](CC(=O)NCCN3CCCC3)CC[C@H]21
[28]
  AC50: 38.9 µM (active)

## O=[N+]([O-])Nc1nccn1Cc1ccc(Cl)nc1 [DEHYDROIMIDACLOPRID]
[29]
  AC50: 39.8 µM (inconclusive)
